Tests used:
[1] = biological target: T1, recombinant hGYS2/GN1 protein (Homo sapiens, UniProt P54840); test: GYS2 coupled enzyme assay (PK/LDH); type: biochemical; details: geometric mean of at least 2 assay runs; NADH absorbance at 340 nm
T1 sequence (P54840 1-703): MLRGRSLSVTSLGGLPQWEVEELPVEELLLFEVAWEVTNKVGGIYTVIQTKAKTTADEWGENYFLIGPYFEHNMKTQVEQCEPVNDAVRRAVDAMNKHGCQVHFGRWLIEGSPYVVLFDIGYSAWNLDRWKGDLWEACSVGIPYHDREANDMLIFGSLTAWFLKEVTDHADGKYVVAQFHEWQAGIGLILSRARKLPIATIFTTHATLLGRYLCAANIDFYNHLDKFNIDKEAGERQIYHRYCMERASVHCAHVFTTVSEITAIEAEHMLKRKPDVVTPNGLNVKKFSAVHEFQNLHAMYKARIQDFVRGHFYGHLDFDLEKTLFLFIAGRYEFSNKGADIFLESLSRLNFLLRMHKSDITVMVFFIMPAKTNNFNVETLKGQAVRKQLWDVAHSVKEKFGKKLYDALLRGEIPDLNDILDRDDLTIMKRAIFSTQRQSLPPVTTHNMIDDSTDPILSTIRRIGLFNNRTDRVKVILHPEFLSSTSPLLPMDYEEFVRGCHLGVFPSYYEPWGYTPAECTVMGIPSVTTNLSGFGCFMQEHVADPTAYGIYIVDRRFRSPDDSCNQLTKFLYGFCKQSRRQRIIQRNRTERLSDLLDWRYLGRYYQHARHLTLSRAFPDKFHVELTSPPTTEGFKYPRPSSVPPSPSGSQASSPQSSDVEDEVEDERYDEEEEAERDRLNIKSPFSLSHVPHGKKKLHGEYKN
T1 sequence (P46976 1-350 partner): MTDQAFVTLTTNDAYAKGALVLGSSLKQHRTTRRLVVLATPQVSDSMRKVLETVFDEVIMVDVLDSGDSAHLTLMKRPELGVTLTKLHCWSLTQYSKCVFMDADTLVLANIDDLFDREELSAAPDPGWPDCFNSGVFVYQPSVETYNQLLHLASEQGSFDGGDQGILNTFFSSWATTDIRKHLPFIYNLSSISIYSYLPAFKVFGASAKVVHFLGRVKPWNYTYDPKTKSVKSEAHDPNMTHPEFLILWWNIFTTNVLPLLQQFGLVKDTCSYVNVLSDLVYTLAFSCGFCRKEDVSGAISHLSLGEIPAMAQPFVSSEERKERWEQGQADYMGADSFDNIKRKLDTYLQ
Text: (§1) The GYS2 coupled enzyme assay is a kinetic biochemical assay that indirectly quantifies the rate of glycogen synthesis by coupling the conversion of GYS2 substrate UDP-glucose into UDP with downstream enzymatic reactions. UDP is released from UDP-glucose as glucose monomers are linked into the growing glycogen strand by GYS2. The coupled assay then proceeds with pyruvate kinase utilizing UDP and phospho(enol)pyruvate (PEP) to form pyruvate. Lactate dehydrogenase then converts pyruvate and NADH into lactate and NAD+. Oxidation of NADH to NAD+ can be measured continuously with a plate reader by quantifying the decrease in NADH absorbance at 340 nm over time.
Compounds that inhibit the hGYS2 enzyme and, subsequently, the downstream conversion of NADH to NAD+, were tested using assay ready plates (black, clear bottom 384 well plates) in a final DMSO reaction volume of 2.5% DMSO. The Assay Buffer contained 50 mM Tris pH 7.5, 2 mM MgCl2, and 100 mM KCl. Fresh stocks of BSA at a final concentration of 0.02% and TCEP 1 mM were added before splitting buffer into hGYS2 buffer and substrate buffer. To the hGYS2 buffer, rabbit liver glycogen was added at a final concentration of 0.2% glycogen. Glucose-6-Phosphate was added at 2 mM, recombinant hGYS2/GN1 protein was added at 200 nM to the substrate buffer, phosphoenolpyruvate (PEP) was added at 2 mM, UDP-Glucose was added at 2 mM, NADH was added at 0.6 mM, and Pyruvate Kinase/Lactate Dehydrogenase was added at 20 units/mL. The reaction was initiated by mixing hGYS2 buffer and substrate buffer at a 1:1 ratio. Both buffers were plated using a liquid dispensing device with hGYS2 buffer plated first followed by the substrate buffer. Plates were spun briefly to eliminate air bubbles and are immediately read in continuous mode at an absorbance of 340 nm, for 10 time points in one-minute increments, for a total of 10 minutes. The slope from these 10 time points was normalized to the positive and negative control wells. The duplicate % inhibition values are then averaged and fit to a Hill equation for dose response according to the Levenberg-Marquardt algorithm with the Hill equation maximum set to 100 and the minimum set to 0.
The results are shown in Table 5 below, which reports the IC50 of each compound. Unless otherwise specified, IC50 values are reported as the geometric mean of at least 2 assay runs on separate days. As shown in the table below, the compounds of the present invention are not potent inhibitors of human GYS2. […] Each run represents the average of a technical replicate, where each compound was assayed twice in the same plate.

[2] = biological target: T2, recombinant hGYS1/GN1 protein (Homo sapiens, UniProt P13807); test: GYS1 coupled enzyme assay (PK/LDH); type: biochemical; details: geometric mean of at least 2 assay runs; NADH absorbance at 340 nm
T2 sequence (P13807 1-737): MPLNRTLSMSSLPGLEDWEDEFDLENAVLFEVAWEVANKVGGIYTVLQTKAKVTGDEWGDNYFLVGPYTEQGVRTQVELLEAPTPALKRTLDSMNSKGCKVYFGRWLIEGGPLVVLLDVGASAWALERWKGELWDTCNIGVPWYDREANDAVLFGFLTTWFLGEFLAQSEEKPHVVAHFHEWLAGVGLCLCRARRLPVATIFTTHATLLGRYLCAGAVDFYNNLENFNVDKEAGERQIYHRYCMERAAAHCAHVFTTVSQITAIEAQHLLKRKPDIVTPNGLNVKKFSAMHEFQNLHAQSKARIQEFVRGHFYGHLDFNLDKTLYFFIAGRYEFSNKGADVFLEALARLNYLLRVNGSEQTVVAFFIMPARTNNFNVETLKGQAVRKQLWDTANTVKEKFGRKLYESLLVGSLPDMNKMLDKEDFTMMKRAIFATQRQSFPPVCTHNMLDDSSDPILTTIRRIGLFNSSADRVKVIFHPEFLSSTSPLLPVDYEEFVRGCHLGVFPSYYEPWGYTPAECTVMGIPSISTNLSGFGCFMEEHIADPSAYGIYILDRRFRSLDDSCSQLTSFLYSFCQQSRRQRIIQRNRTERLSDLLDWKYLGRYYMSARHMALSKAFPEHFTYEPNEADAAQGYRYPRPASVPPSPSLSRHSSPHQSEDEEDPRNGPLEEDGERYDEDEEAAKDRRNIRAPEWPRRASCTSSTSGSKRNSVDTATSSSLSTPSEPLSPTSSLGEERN
T2 sequence (P46976 1-350 partner): T1 sequence (P46976 1-350 partner)
Text: as §1, with “GYS1” for “GYS2”, “GYS1.” for “GYS2.”
Compounds that inhibit the hGYS1 enzyme and, subsequently, the downstream conversion of NADH to NAD+, were tested using assay ready plates (black, clear bottom 384 well plates) in a final DMSO reaction volume of 2.5% DMSO. The Assay Buffer contained 50 mM Tris pH 7.5, 2 mM MgCl2, and 100 mM KCl. Fresh stocks of BSA at a final concentration of 0.02% and TCEP at 1 mM were added before splitting buffer into hGYS1 buffer and substrate buffer. To the hGYS1 buffer, rabbit liver glycogen was added at a final concentration of 0.2% glycogen. Glucose-6-Phosphate was added at 1 mM, recombinant hGYS1/GN1 protein was added at 50 nM to the substrate buffer, phosphoenolpyruvate (PEP) was added at 2 mM, UDP-Glucose was added at 0.8 mM, NADH) was added at 0.6 mM, and Pyruvate Kinase/Lactate Dehydrogenase was added at 20 units/mL. The reaction was initiated by mixing hGYS1 buffer and substrate buffer at a 1:1 ratio. Both buffers were plated using a liquid dispensing device with hGYS1 buffer plated first followed by the substrate buffer. Plates were spun briefly to eliminate air bubbles and are immediately read in continuous mode at an absorbance of 340 nm, for 10 time points in one-minute increments, for a total of 10 minutes. The slope from these 10 time points was normalized to the positive and negative control wells. The duplicate % inhibition values are then averaged and fit to a Hill equation for dose response according to the Levenberg-Marquardt algorithm with the Hill equation maximum set to 100 and the minimum set to 0.
The results are shown in Table 3 below, which reports the IC50 of each compound. Unless otherwise specified, IC50 values are reported as the geometric mean of at least 2 assay runs on separate days. Each run represents the average of a technical replicate, where each compound was assayed twice in the same plate. As shown in the table below, the compounds of the present invention are potent inhibitors of human GYS1.

COCCN1CCC(C(=O)Nc2ccccc2[C@H](NC(=O)[C@H]2C[C@@H]2F)c2ccc(C(C)C)cc2)CC1 [compound 13, N-(2-((R)-((1R,2S)-2-fluorocyclopropane-1-carboxamido)(4-isopropylphenyl)methyl)phenyl)-1-(2-methoxyethyl)piperidine-4-carboxamide]
IC50 [1]: > 100000 nM
IC50 [2]: 1040 nM

CC(C)c1ccc([C@@H](NC(=O)[C@H]2C[C@@H]2F)c2ccccc2NC(=O)C2CCN(CC3CC3)CC2)cc1 [compound 14, 1-(cyclopropylmethyl)-N-(2-((R)-((1R,2S)-2-fluorocyclopropane-1-carboxamido)(4-isopropylphenyl)methyl)phenyl)piperidine-4-carboxamide]
IC50 [1]: > 100000 nM
IC50 [2]: 891 nM

CC(C)c1ccc([C@@H](NC(=O)C2CC2)c2ccccc2N/C(N)=N/C#N)cc1 [compound 19, (R,E)-N-((2-(2-cyanoguanidino)phenyl)(4-isopropylphenyl)methyl)cyclopropanecarboxamide]
IC50 [1]: > 100000 nM
IC50 [2]: 304 nM

CC(C)c1ccc([C@@H](NC(=O)C2CC2)c2ccccc2NC(=O)C2CN(C)C2)cc1 [compound 26, (R)-N-(2-(cyclopropanecarboxamido(4-isopropylphenyl)methyl)phenyl)-1-methylazetidine-3-carboxamide]
IC50 [1]: > 100000 nM
IC50 [2]: 1190 nM

CC(C)c1ccc([C@@H](NC(=O)[C@@H]2C[C@H]2F)c2ccccc2)cc1 [compound 27, (1S,2R)-2-fluoro-N-((S)-(4-isopropylphenyl)(phenyl)methyl)cyclopropane-1-carboxamide]
IC50 [1]: > 100000 nM
IC50 [2]: 598 nM

CC(C)c1ccc([C@@H](NC(=O)[C@H]2C[C@@H]2F)c2ccccc2)cc1 [compound 36, (1R,2S)-2-fluoro-N-((S)-(4-isopropylphenyl)(phenyl)methyl)cyclopropane-1-carboxamide]
IC50 [1]: > 100000 nM
IC50 [2]: 418 nM

CC(=O)N1CC(C(=O)Nc2ccccc2[C@H](NC(=O)C2CC2)c2ccc(C(C)C)cc2)C1 [compound 37, (R)-1-acetyl-N-(2-(cyclopropanecarboxamido(4-isopropylphenyl)methyl)phenyl)azetidine-3-carboxamide]
IC50 [1]: > 100000 nM
IC50 [2]: 1060 nM

CC(=O)Nc1ccccc1[C@H](NC(=O)C1CC1)c1ccc(C(C)C)cn1 [compound 46, (S)-N-((2-acetamidophenyl)(5-isopropylpyridin-2-yl)methyl)cyclopropanecarboxamide]
IC50 [1]: > 100000 nM
IC50 [2]: 1420 nM

CC(C)c1ccc([C@@H](NC(=O)C2CC2)c2ccccc2NC(=O)C2CNC2)cc1 [compound 48, (R)-N-(2-(cyclopropanecarboxamido(4-isopropylphenyl)methyl)phenyl)azetidine-3-carboxamide]
IC50 [1]: > 100000 nM
IC50 [2]: 1060 nM

CNC(=O)Nc1ccccc1[C@H](NC(=O)C1CC1)c1ccc(C(C)C)cc1 [compound 53, (R)-N-((4-isopropylphenyl)(2-(3-methylureido)phenyl)methyl)cyclopropanecarboxamide]
IC50 [1]: > 100000 nM
IC50 [2]: 1230 nM

CC(C)c1ccc([C@@H](NC(=O)C2CC2)c2ccccc2NC(N)=O)cc1 [compound 54, (R)-N-((4-isopropylphenyl)(2-ureidophenyl)methyl)cyclopropanecarboxamide]
IC50 [1]: > 100000 nM
IC50 [2]: 346 nM

CC(C)c1ccc([C@@H](NC(=O)C2CC2)c2ccn[nH]2)cc1 [compound 56, (R)-N-((4-isopropylphenyl)(1H-pyrazol-5-yl)methyl)cyclopropanecarboxamide]
IC50 [1]: > 100000 nM
IC50 [2]: 372 nM

CC(C)c1ccc([C@@H](NC(=O)C2CC2)c2ccccc2NS(C)(=O)=O)cc1 [compound 57, (R)-N-((4-isopropylphenyl)(2-(methylsulfonamido)phenyl)methyl)cyclopropanecarboxamide]
IC50 [1]: > 100000 nM
IC50 [2]: 2170 nM

CCC(=O)Nc1ccccc1[C@H](NC(=O)C1CC1)c1ccc(C(C)C)cc1 [compound 59, (R)-N-((4-isopropylphenyl)(2-propionamidophenyl)methyl)cyclopropanecarboxamide]
IC50 [1]: > 100000 nM
IC50 [2]: 441 nM
